ChEMBL document CHEMBL3507680, “University of Dundee, Gates Library screen for HepG2 cell viability”

Assay: Human HepG2 cell viability assay in 384 well format
Assay type: toxicity, cell-based
Design: dose 125 nL, time 70.5 hour; concentration not given beside the values
Details: HepG2 cells, read-out: Inhibition

Row | Structure (SMILES) | cytotoxicity at 70.5 h
1 | CC(C)(C)CCN1CCN(Cn2nccc2-c2cccnc2)CC1 | 0.907%
2 | COc1cccc([C@@H]2N[C@H](c3nccs3)Cc3ccsc32)c1OC | -12.9%
3 | CC(C)(CN1CCC(Cc2ccc(C(=O)O)cc2)C1)N1CCOCC1 (stereo not drawn) | -12.2%
4 | CC(Cn1cncc1-c1cnn(Cc2ccccc2)c1)N1CCCCC1 (stereo not drawn) | -1.65%
5 | CC(C)[C@H]1CN(Cc2c[nH]nn2)C[C@@H]1NC(=O)C1CCOCC1 | -0.972%
6 | O=C(c1cccnc1)N1CCc2ncnc(N3CCOCC3)c2CC1 | -7.42%
7 | CS(=O)(=O)N1C[C@@H]2COC[C@]2(CN2CCOCC2)C1 | -8.04%
8 | O=C(c1ccco1)N1C[C@H]2CCCN(CC3CC3)[C@H]2C1 | -16.9%
9 | Cc1cccc(N(CCC#N)S(=O)(=O)CC2CCCCO2)c1 (stereo not drawn) | 34.5%
10 | COc1ccnc(N2CCN(C(=O)CN3CCOCC3)CC2)n1 | 8.59%
11 | Cc1nc(NC(=O)c2c3c(nn2C2CCS(=O)(=O)C2)CCC3)sc1C (stereo not drawn) | 16.2%
12 | CN(C)CCCNCCC(c1ccccc1)C1CCOC(C)(C)C1 (stereo not drawn) | -3.41%
13 | CC(C)(C#N)C(=O)N1CCCC(c2cc(C(F)(F)F)[nH]n2)C1 (stereo not drawn) | -0.389%
14 | O=C(NCc1cccnc1)C1=NOC2(CCN(C3CCOCC3)C2)C1 (stereo not drawn) | -11.3%
15 | COc1cc2[nH]c(=O)c(CN3CCC[C@@H]3C(N)=O)cc2c(OC)c1OC | 23.4%
16 | CCc1nncn1CCNC(=O)Nc1ccc2c(c1)CCCO2 | 1.85%
17 | O=C(c1nc2c(o1)CN(CC1CCC1)C2)N1CCCC1 | 10.5%
18 | O=C(NCc1cccc(Cl)c1)C1=NOC2(CCNC2)C1 (stereo not drawn) | -6.34%
19 | CS(=O)(=O)NCc1cc2n(n1)CCCN(Cc1ccc(Cl)s1)C2 | -9.1%
20 | Cn1c(-c2ccc(F)cc2)cn2cc(C(=O)N3CC[C@@H](O)C3)nc2c1=O | -10.1%
21 | COc1ccc([C@@H]2CN(c3cc(C(=O)O)ccn3)C[C@H]2N(C)C)cc1 | 25.7%
22 | CN1CCN(C(=O)Cc2ccccn2)Cc2cccnc21 | -2.09%
23 | CCN(CCO)C[C@@H]1CN(c2cc(C(F)(F)F)cc(C)n2)C[C@@H]1CO | -8.43%
24 | COc1cc(CNCc2c(C)nn(C)c2N(C)C)ccc1OCCO | 5.42%
25 | O=C(CCNc1ncccn1)N1CCCC(n2ccnc2)C1 (stereo not drawn) | -2.71%
26 | Cc1ccc(-c2nnc(C(C)NCCn3cc(C)cn3)o2)cc1 (stereo not drawn) | -14.8%

Row | Structure (SMILES) | cytotoxicity at 70.5 h
27 | C[C@@H]1CN(Cc2ccncc2)C[C@@]1(O)C1CC1 | -11.5%
28 | Cc1ccccc1N1CCCN(C(=O)c2cn(C)c3ccccc23)CC1 | -8.98%
29 | CCc1nc(N2CCC3(CC2)CC(=O)N(Cc2ccc(Cl)cc2)C3)no1 | -10.7%
30 | COc1cccc(Cn2ncnc2CCC(C)N2CCN(C)CC2)c1 (stereo not drawn) | -4.48%
31 | Cn1ccnc1C(=O)N[C@@H]1CN(Cc2ccc(F)cc2)[C@@H]2CCCO[C@@H]21 | -3.63%
32 | Cc1ccc(CN2CC[C@@H](O)[C@@H]2Cc2ccccc2)o1 | 34%
33 | CC(C)NC(=O)N1CCC2(CC1)C(=O)NCCN2Cc1ccccc1 | -7.72%
34 | COC(=O)C(NC(=O)C1CCCC1)c1cc(F)ccc1F (stereo not drawn) | 0.552%
35 | CCN1Cc2cc(F)ccc2N(C(C)=O)CCC1=O | -3.82%
36 | Cc1cc(N(C)CCN(C)C)n2nc(C)cc2n1 | -1.46%
37 | O=C1N(C2CCOCC2)CCCC12CCN(c1ncccc1Cl)C2 (stereo not drawn) | -14.5%
38 | OC(CN(Cc1ccccc1)Cc1cccnc1)c1ccco1 (stereo not drawn) | 14.4%
39 | Cc1csc(NC(=O)c2ccc(NC(=O)N3CCOCC3)cc2)n1 | 3.47%
40 | Cc1cc(NC(=O)CN(C)C2CCCN(c3cccnn3)C2)n(C)n1 (stereo not drawn) | -4.81%
41 | c1cncc(C[C@H]2[C@H](N3CCOCC3)CCN2Cc2nccs2)c1 | -3.76%
42 | CCc1nc(CN2CCCC2C(=O)NC)cs1 (stereo not drawn) | -0.35%
43 | CC(C)CN1CCC2(CC1)CN(C(=O)C(C)C)C2 | -9.29%
44 | CN(CCc1ccccc1)c1cnn(CC(=O)N2CCOCC2)c(=O)c1 | -7.73%
45 | CC(CO)NC(=O)c1ccc(NCc2ccccc2)cc1 (stereo not drawn) | -7%
46 | CNC(=O)COc1nc(C(C)(C)C)no1 | 3.09%
47 | Cc1ccccc1C1(CNC(=O)NC(C)c2nncn2C)CC1 (stereo not drawn) | -2.77%
48 | N#CCCN(C(=O)CN1CCCC1c1cccs1)c1ccccc1F (stereo not drawn) | 1.76%
49 | CCN1CC(c2ccccc2)CC2(CCN(Cc3ncc[nH]3)CC2)C1 (stereo not drawn) | -9.77%
50 | Cc1noc([C@@]23CCO[C@@H]2CCN(C(=O)c2cc(C)on2)C3)n1 | -3.23%
51 | CCn1c(CC2CCN(C(=O)C3CCOC3)CC2)nn(C)c1=O (stereo not drawn) | 32.2%
52 | O=S(=O)(Cc1ccccc1Cl)NCCCN1CCCC1 | -5.39%

Row | Structure (SMILES) | cytotoxicity at 70.5 h
53 | O=C(C1CC(=O)N(c2n[nH]c3cc(Br)ccc23)C1)N1CCOCC1 (stereo not drawn) | -11.9%
54 | CCN1Cc2c(C(=O)NC(C)C(C)C)ncn2-c2ccccc2S1(=O)=O (stereo not drawn) | 6.35%
55 | Cc1nc(Cc2ccc(F)cc2)cc(C2COCCN2)n1 (stereo not drawn) | 2.37%
56 | Cc1cc2nc(SCC(=O)NC(C)C)n(Cc3ccco3)c(O)c-2n1 | -14.4%
57 | CCN1CC[C@@]2(C(=O)Nc3ccccc3)CCN(S(C)(=O)=O)CC[C@@H]12 | -17.9%
58 | CCOC(=O)[C@]12CCCN(Cc3ccco3)C[C@H]1CN(S(C)(=O)=O)C2 | -4.24%
59 | Cc1csc2ncc(-c3ccnc(N4CCN(C)CC4)n3)c(=O)n12 | 24.1%
60 | Cc1cc(C2CCCCN2C(=O)c2ccsc2)nc2nccn12 (stereo not drawn) | 6.22%
61 | COc1ccccc1[C@@H]1CN(Cc2c(C)noc2C)C[C@H]1C(=O)O | -8.62%
62 | c1ncn(CC2CCCN(Cc3csc(-c4ccsc4)n3)C2)n1 (stereo not drawn) | 2.18%
63 | Fc1ccc(CN2CCC(F)(F)C3(CCN(c4cnccn4)C3)C2)cc1 (stereo not drawn) | -9.88%
64 | Cc1ncsc1CN1C[C@H](NC(=O)C2CCOCC2)[C@@H](C(C)C)C1 | -14.2%
65 | Cc1cccc(=O)n1CCC(=O)N1CC[C@](C)(O)[C@H](C)C1 | -9.5%
66 | COc1ccc(CC(=O)N2CC[C@@H]3CN(C)S(=O)(=O)[C@@H]3CC2)cc1 | -5.74%
67 | COCC(=O)NC[C@@]1(COc2cccnc2)C[C@@H](O)[C@@H](O)C1 | 3.07%
68 | Fc1cccc(-c2nc(CN3CCCC3Cn3cccn3)co2)c1 (stereo not drawn) | 15.8%
69 | CCOC1CCN(C(=O)NCc2ccc(CN3CCOCC3)cc2)CC1 | -9.89%
70 | OCCC1CN(c2ncnc3[nH]cnc23)CCN1Cc1ccccc1F (stereo not drawn) | 5.32%
71 | CN1CC2(CCN(C(=O)Cn3ncc4ccccc4c3=O)CC2)OC1=O | -13.8%
72 | CCOc1ccc(C(=O)N2C[C@H]3CC[C@@H]2CN(C(=O)C2CCC2)C3)cc1 | -0.418%
73 | CCCN1C[C@H]2CC[C@@H]1CN(C(=O)Cc1c(C)nc(CC)[nH]c1=O)C2 | -8.7%
74 | Cc1ccc(N2CCCC(NC(=O)Cc3csc(C)n3)C2=O)cc1 (stereo not drawn) | -0.932%
75 | CC(=O)NC(C)c1ccc(OCC2CC2)c(F)c1 (stereo not drawn) | -6.57%
76 | CC(C)CN1CC2(CCN(C(=O)c3cn4cccnc4n3)CC2)CC1=O | -17.9%
77 | N#Cc1ccccc1N1CCCN(C(=O)CCc2nccs2)CC1 | -21.6%
78 | COc1ccc(-c2n[nH]cc2CN(C)CCC2CCOCC2)cc1F | -1.66%
